Assay results taken from PMC4992173, “Divergent synthesis and identification of the cellular targets of deoxyelephantopins” (Nature Communications, 2016).

System: Caco-2 cells
Experiment: In situ global proteomics profiling of Caco-2 cells (LC-MS/MS, LFQ)
Assay type: cell-based, human
Conditions: for Log2 20 µM DEP/DMSO: LFQ
Protocol: Figure 7 Identification of PPARγ as target of deoxyelephantopin and screening of DEP derivatives as PPARγ antagonists. (a) Quantification of endogenous PPARγ enriched from Caco-2 cells using 10 μM 24c following in situ treatment with DEP (20 μM) or DMSO (normalized LFQ values±s.d. are shown; n=6). (b) Changes in expression levels of five PPARγ-dependent proteins following 24 h treatment of Caco-2 cells with DMSO, rosiglitazone (10 μM), T0070907 (50 μM) or DEP (20 μM; LFQ ratios±s.d. are shown; n=3). **P<0.005 and ***P<0.0005 by two-sided Student's t-test. (c) Gel-based competitive screening of DEP and analogues as PPARγ antagonists against recombinant human enzyme (top). hPPARγ was treated with each compound (20 μM) for 1 h followed by treatment with 24c-Cy3 (10 μM) as probe. Quantification of fluorescence intensity in the competitive screening for PPARγ antagonists (bottom; values±s.d. are shown; n=3).
Caco-2 cells were treated with DMSO, PPARγ agonist rosiglitazone, antagonist T0070907 or DEP for 24 h, the cells were collected and the proteomes were comparatively analysed by LC–MS/MS. […] Furthermore, the list of 43 dysregulated proteins was analysed and classified using the GOrilla pathway analysis tool (Supplementary Fig. 15). […]
In situ global proteomics profiling using LC-MS/MS. Caco- ’ cells/mL) in a 6-well plate, allowed to grow to confluence and to differentiate for 28 days. The wells were washed one time with PBS and treated with either DMSO, 10 µM rosiglitazone, 50 µM T0070907 or 20 µM DEP for 24 hours. Cells were washed two times with PBS and lysates were prepared. Samples (30 µg) were denatured with 6 M urea in 50 mM NH4HCO3, reduced […]
dark. Samples were diluted to 2 M urea with 50 mM NH4HCO3, and digested with trypsin ([…] for 12 hours at 37 °C. Samples were acidified to a final concentration of 5% acetic acid, desalted over a self-packed C18 spin column and […]
dried. […]
LC-MS/MS analysis. Peptides were resuspended in water with 0.1% formic acid (FA) and analyzed using Proxeon EASY-nLC 1000 nano-UHPLC coupled to QExactive Plus Quadrupole-Orbitrap mass spectrometer (Thermo Scientific). The chromatography column […]
H2O (Buffer A) and 0.1% FA in MeCN (Buffer B). Peptides were eluted into the mass spectrometer at a flow rate of 300 nL/min. over a 240 min. linear gradient (3-35% Buffer B) at 50 °C. Data was acquired in data-dependent mode (top- N = ’ […]
and isotope exclusion was enabled.
MaxQuant analysis. The MS data was analyzed with MaxQuant (V1.5.2.8) and searched against the human proteome (Uniprot, 89,649 entries) and a common list of contaminants (included in MaxQuant). The first peptide search tolerance was set to 20 ppm, 10 ppm was used for the main peptide search and fragment mass tolerance was set to 0.02 Da. The false discovery rate for peptides, proteins and sites identification was set to 1%. The minimum peptide length was set to 6 amino acids and peptide re-quantification, label-free quantification (MaxLFQ) and “ ” were enabled. The minimal number of peptides per protein was set to two. Oxidized methionines and N-terminal acetylation were searched as variable modifications and carbamidomethylation of cysteines was searched as a fixed modification. For SILAC experiments 13C6 L-lysine and 13C6 15N4 L-arginine were set as heavy isotope labels and 12C6 L-lysine and 12C6 14N4 L-arginine as light isotope labels.
19 d k g h ARγ. 19a was covalently docked to the crystal structure of human γ ZU 190 using the GOLD suite (V5.3, CCDC). The default GOLD fitness function was used to determine the best binding configuration. The distance for hydrogen bonding was set to 3 Å.
IAA competition of 23c, 24c and DEP h ARγ. γ
(500 ng in 9 µL PBS) was treated with either 100 µM DEP, 23c, 24c or DMSO (1 µL of 10x stock in DMSO) for one hour. Samples were denatured with 6 M urea in 50 mM NH4HCO3, […]
in the dark. Samples were diluted to 2 M urea with 50 mM NH4HCO3, and digested with trypsin […]

## C=C(C)C(=O)O[C@H]1CC2=C[C@@H](C/C(C)=C/[C@H]3OC(=O)C(=C)[C@H]13)OC2=O [deoxyelephantopin]
20 µM, 24 h, compared with rosiglitazone and T0070907
  mode of action on PPARγ in cells: antagonist of PPARγ
Protein ALDH3B1, 24 h
  Log2 20 µM DEP/DMSO: -0.67
Protein ARHGAP17, 24 h
  Log2 20 µM DEP/DMSO: -0.97
Protein ARMCX3, 24 h
  Log2 20 µM DEP/DMSO: -0.92
Protein COL4A3BP, 24 h
  Log2 20 µM DEP/DMSO: -0.76
Protein CROT, 24 h
  Log2 20 µM DEP/DMSO: -0.68
Protein CTBP2, 24 h
  Log2 20 µM DEP/DMSO: 0.72
Protein DDX21, 24 h
  Log2 20 µM DEP/DMSO: 0.82
Protein FNTA, 24 h
  Log2 20 µM DEP/DMSO: -0.62
Protein GID8, 24 h
  Log2 20 µM DEP/DMSO: 0.68
Protein GIPC2, 24 h
  Log2 20 µM DEP/DMSO: -0.69
Protein GIT2, 24 h
  Log2 20 µM DEP/DMSO: -0.92
Protein GSTA1, 24 h
  Log2 20 µM DEP/DMSO: -0.81
Protein GSTA2, 24 h
  Log2 20 µM DEP/DMSO: -0.87
Protein GSTM3, 24 h
  Log2 20 µM DEP/DMSO: -0.84
Protein HIGD1A, 24 h
  Log2 20 µM DEP/DMSO: 0.69
Protein IREB2, 24 h
  Log2 20 µM DEP/DMSO: 0.65
Protein ITGB4, 24 h
  Log2 20 µM DEP/DMSO: 0.92
Protein LDHD, 24 h
  Log2 20 µM DEP/DMSO: -0.60
Protein LDLR, 24 h
  Log2 20 µM DEP/DMSO: 1.72
Protein LIPA, 24 h
  Log2 20 µM DEP/DMSO: -0.68
Protein MARCH5, 24 h
  Log2 20 µM DEP/DMSO: 1.85
Protein MGMT, 24 h
  Log2 20 µM DEP/DMSO: -0.81
Protein MYO15B, 24 h
  Log2 20 µM DEP/DMSO: -1.00
Protein NOP9, 24 h
  Log2 20 µM DEP/DMSO: 1.57
Protein OAS1, 24 h
  Log2 20 µM DEP/DMSO: 1.10
Protein OGDHL, 24 h
  Log2 20 µM DEP/DMSO: -0.98
Protein PANK4, 24 h
  Log2 20 µM DEP/DMSO: -0.81
Protein PHPT1, 24 h
  Log2 20 µM DEP/DMSO: -0.79
Protein PSIP1, 24 h
  Log2 20 µM DEP/DMSO: 0.76
Protein RAB5B, 24 h
  Log2 20 µM DEP/DMSO: 0.79
Protein RBP4, 24 h
  Log2 20 µM DEP/DMSO: -1.03
Protein RRS1, 24 h
  Log2 20 µM DEP/DMSO: 0.65
Protein SAMHD1, 24 h
  Log2 20 µM DEP/DMSO: -0.97
Protein SCAMP3, 24 h
  Log2 20 µM DEP/DMSO: 0.63
Protein SETDB1, 24 h
  Log2 20 µM DEP/DMSO: 0.81
Protein SLC26A3, 24 h
  Log2 20 µM DEP/DMSO: -0.98
Protein SLC39A14, 24 h
  Log2 20 µM DEP/DMSO: -0.74
Protein STK4, 24 h
  Log2 20 µM DEP/DMSO: -0.74
Protein SURF6, 24 h
  Log2 20 µM DEP/DMSO: 1.30
Protein TGOLN2, 24 h
  Log2 20 µM DEP/DMSO: 1.03
Protein TPD52L1, 24 h
  Log2 20 µM DEP/DMSO: -0.71
Protein TTR, 24 h
  Log2 20 µM DEP/DMSO: -0.97
Protein VPS52, 24 h
  Log2 20 µM DEP/DMSO: 0.63
